According to patent US20080269291A1, “Chemical Compounds” (priority 2005, published 2008):
pIC50: −log10 of the molar value.

Biological target: T1, Recombinant human IKKβ (residues 1-737) (Homo sapiens, UniProt O14920)
T1 construct: Recombinant human IKKβ (residues 1-737); GST (C); made in house
T1 sequence (O14920 1-737): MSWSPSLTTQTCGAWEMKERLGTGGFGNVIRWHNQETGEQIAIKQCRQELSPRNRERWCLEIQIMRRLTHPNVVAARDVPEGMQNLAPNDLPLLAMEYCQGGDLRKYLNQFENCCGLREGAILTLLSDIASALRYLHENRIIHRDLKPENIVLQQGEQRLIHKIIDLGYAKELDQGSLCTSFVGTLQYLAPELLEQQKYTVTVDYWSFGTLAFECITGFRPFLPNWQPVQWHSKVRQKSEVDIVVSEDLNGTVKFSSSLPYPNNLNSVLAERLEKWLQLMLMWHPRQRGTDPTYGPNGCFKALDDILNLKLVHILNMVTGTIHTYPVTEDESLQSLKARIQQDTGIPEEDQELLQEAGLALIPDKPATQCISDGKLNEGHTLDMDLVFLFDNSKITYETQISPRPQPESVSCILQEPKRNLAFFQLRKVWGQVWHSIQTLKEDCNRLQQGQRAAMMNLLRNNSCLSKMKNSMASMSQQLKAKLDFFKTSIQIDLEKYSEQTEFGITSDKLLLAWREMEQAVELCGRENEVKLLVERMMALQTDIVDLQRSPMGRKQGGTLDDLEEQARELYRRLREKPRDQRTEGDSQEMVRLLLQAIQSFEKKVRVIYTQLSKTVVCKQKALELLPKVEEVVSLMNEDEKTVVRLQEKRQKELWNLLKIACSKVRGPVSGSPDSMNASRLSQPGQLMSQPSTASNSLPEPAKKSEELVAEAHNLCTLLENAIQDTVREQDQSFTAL
Assay: IKK2 Assay (TR-FRET)
Assay type: biochemical
Conditions: activity against IKK2, IKK2 5 nM, GST-IκBα substrate 25 nM, ATP 1 μM, 30 minutes at room temperature
Protocol: Recombinant human IKKβ (residues 1-737) was expressed in baculovirus as a C-terminal GST-tagged fusion protein, and its activity was assessed using a time-resolved fluorescence resonance energy transfer (TR-FRET) assay. Briefly, IKK2 (5 nM final) diluted in assay buffer (50 mM HEPES, 10 mM MgCl2, 1 mM CHAPS pH 7.4 with 1 mM DTT and 0.01% w/v BSA) was added to wells containing various concentrations of compound or DMSO vehicle (3% final). The reaction was initiated by the addition of GST-IκBα substrate (25 nM final)/ATP (1 μM final), in a total volume of 30 μL. The reaction was incubated for 30 minutes at room temperature, then terminated by the addition of 15 μL of 50 mM EDTA. Detection reagent (15 μl) in buffer (100 mM HEPES pH 7.4, 150 mM NaCl and 0.1% w/v BSA) containing antiphosphoserine-licBa-32/36 monoclonal antibody 12C2 (Cell Signalling Technology, Beverly Mass., USA) labelled with W-1024 europium chelate (Wallac OY, Turku, Finland), and an APC-labelled anti-GST antibody (Prozyme, San Leandro, Calif., USA) was added and the reaction was further incubated for 60 minutes at room temperature. The degree of phosphorylation of GST-IκBα was measured using a Packard Discovery plate reader (Perkin-Elmer Life Sciences, Pangbourne, UK) as a ratio of specific 665 nm energy transfer signal to reference europium 620 nm signal.

pIC50: 4.60
Structure (SMILES): CCS(=O)(=O)N1CCC(c2c[nH]c3c(C(N)=O)cc(S(=O)(=O)c4ccc(C)cc4)cc23)CC1 [Example 48, 3-[1-(ethylsulfonyl)-4-piperidinyl]-5-[(4-methylphenyl)sulfonyl]-1H-indole-7-carboxamide]
